In patent US20090054421A1, “Pyrimidothiophene Compounds Having HSP90 Inhibitory Activity” (Vernalis R & D Limited, priority 2005, published 2009):

Molecular target: T1, human full-length HSP90 (Homo sapiens, UniProt P08238)
T1 construct: E. coli expressed human full-length HSP90 protein, purified >95%; made in house; host or cells: E. coli
Assay: Fluorescence polarization assay (competitive displacement of fluorescein-labelled probe from HSP90)
Assay type: binding
Conditions: activity range A or B
Source text: Fluorescence Polarization Assay
Fluorescence polarization {also known as fluorescence anisotropy} measures the rotation of a fluorescing species in solution, where the larger molecule the more polarized the fluorescence emission. When the fluorophore is excited with polarized light, the emitted light is also polarized. The molecular size is proportional to the polarization of the fluorescence emission.
The fluoroscein-labelled probe—
binds to HSP90 {full-length human, full-length yeast or N-terminal domain HSP90} and the anisotropy {rotation of the probe:protein complex} is measured.
Test compound is added to the assay plate, left to equilibrate and the anisotropy measured again. Any change in anisotropy is due to competitive binding of compound to HSP90, thereby releasing probe.
Chemicals are of the highest purity commercially available and all aqueous solutions are made up in AR water. • 1) Costar 96-well black assay plate #3915 • 2) Assay buffer of (a) 100 mM Tris pH7.4; (b) 20 mM KCl; (c) 6 mM MgCl2. Stored at room temperature. • 3) BSA (bovine serum albumen) 10 mg/ml (New England Biolabs # B9001S) • 4) 20 mM probe in 100% DMSO stock concentration. Stored in the dark at RT. Working concentration is 200 nM diluted in AR water and stored at 4° C., Final concentration in assay 80 nM. • 5) E. coli expressed human full-length HSP90 protein, purified >95% (see, e.g., Panaretou et al., 1998) and stored in 50 μL aliquots at −80° C.
• 1) Add 100 μl 1× buffer to wells 11A and 12A (=FP BLNK) • 2) Prepare assay mix—all reagents are kept on ice with a lid on the bucket as the probe is light-sensitive.
• 3) Aliquot 100 μl assay mix to all other wells • 4) Seal plate and leave in dark at room temp for 20 minutes to equilibrate Compound Dilution Plate—1×3 dilution series • 1) In a clear 96-well v-bottom plate—{# VWR 007/008/257} add 10 μl 100% DMSO to wells B1 to H11 • 2) To wells A1 to A11 add 17.5 μl 100% DMSO • 3) Add 2.5 μl cpd to A1. This gives 2.5 mM {50×} stock cpd—assuming cpds 20 mM. • 4) Repeat for wells A2 to A10. Control in columns 11 and 12. • 5) Transfer 5 μl from row A to row B—not column 12. Mix well. • 6) Transfer 5 μl from row B to row C. […] In column 11 {provides standard curve} only add compound B11-H11. Add 2 μl of 100 mM standard cpd to wells B12-H12 {is positive control} • 13) The Z′ factor is calculated from zero controls and positive wells. It typically gives a value of 0.7-0.9.
The compounds tested in the above assay were assigned to one of two activity ranges, namely A=<10 μM; B=>10 μM, and those assignments are reported above.

T1 sequence (P08238 whole entry): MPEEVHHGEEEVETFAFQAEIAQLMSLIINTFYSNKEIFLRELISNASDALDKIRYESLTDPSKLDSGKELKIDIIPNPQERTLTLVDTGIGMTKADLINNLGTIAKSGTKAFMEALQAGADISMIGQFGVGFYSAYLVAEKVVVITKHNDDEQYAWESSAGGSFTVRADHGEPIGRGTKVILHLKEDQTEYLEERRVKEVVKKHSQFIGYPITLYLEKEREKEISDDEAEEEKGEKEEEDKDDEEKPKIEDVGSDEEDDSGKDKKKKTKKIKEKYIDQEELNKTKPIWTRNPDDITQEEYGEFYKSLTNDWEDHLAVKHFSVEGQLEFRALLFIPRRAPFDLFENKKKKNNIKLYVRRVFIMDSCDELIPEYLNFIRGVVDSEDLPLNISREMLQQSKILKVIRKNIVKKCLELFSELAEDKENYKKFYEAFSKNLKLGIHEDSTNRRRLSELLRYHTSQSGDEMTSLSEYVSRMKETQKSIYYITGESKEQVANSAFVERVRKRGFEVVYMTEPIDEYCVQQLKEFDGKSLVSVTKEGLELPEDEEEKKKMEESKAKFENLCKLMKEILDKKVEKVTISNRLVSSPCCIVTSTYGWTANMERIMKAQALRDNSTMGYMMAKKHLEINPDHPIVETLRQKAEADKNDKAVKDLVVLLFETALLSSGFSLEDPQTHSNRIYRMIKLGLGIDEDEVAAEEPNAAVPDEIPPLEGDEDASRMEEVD

| IC50 [µM] | SMILES |
| --- | --- |
| < 10 | CCNC(=O)c1cc2c(C(=NOCCN3CCCC3=O)c3ccc(N4CCCC4=O)cc3)nc(N)nc2s1 [Example 77] |
| < 10 | Nc1nc(C(=NOCCN2CCCC2=O)c2ccc3c(c2)OCO3)c2cc(C(=O)NCC(F)(F)F)sc2n1 [Example 76] |
| < 10 | CC(C)(C)NC(=O)c1cc2c(C(=NOCCN3CCCC3=O)c3ccc4c(c3)OCO4)nc(N)nc2s1 [Example 58] |
| > 10 | CCNC(=O)c1cc2c(C(=NOCCN(CC)CC)c3ccc(N4CCCC4=O)cc3)nc(N)nc2s1 [Example 73] |
| < 10 | CCNC(=O)c1cc2c(C(=NO)c3ccc(N4CCCC4=O)cc3)nc(N)nc2s1 [Example 78] |
| < 10 | CCN(CC)CCON=C(c1ccc2c(c1)OCO2)c1nc(N)nc2sc(C(=O)NCC(F)(F)F)cc12 [Example 74] |
| > 10 | CCNC(=O)c1cc2c(C(=NO)c3ccncc3)nc(N)nc2s1 [Example 51] |
| < 10 | CCN(CC)CCON=C(c1ccc2c(c1)OCO2)c1nc(N)nc2sc(C(=O)NC(C)(C)C)cc12 [Example 55] |
| < 10 | CCNC(=O)c1cc2c(C(=NOCCN3CCCC3)c3ccc(N4CCCC4=O)cc3)nc(N)nc2s1 [Example 72] |
| < 10 | CCN(CC)CCON=C(c1ccc2c(c1)OCO2)c1nc(N)nc2sc(C(=O)NC3CC3)cc12 [Example 59] |
| < 10 | Nc1nc(C(=NOCCN2CCCC2=O)c2ccc3c(c2)OCO3)c2cc(C(=O)NC3CC3)sc2n1 [Example 61] |
| > 10 | CCNC(=O)c1cc2c(C(=NOCCN3CCCC3=O)c3ccc(-n4cccc4)cc3)nc(N)nc2s1 [Example 71] |
| > 10 | CCNC(=O)c1cc2c(C(=NOCCN3CCCC3)c3ccncc3)nc(N)nc2s1 [Example 48] |
| < 10 | Nc1nc(C(=NOCCN2CCCC2)c2ccc3c(c2)OCO3)c2cc(C(=O)NC3CC3)sc2n1 [Example 60] |
| < 10 | CCNC(=O)c1cc2c(C(=NOCCN3CCCC3=O)c3ccc(-n4cccn4)cc3)nc(N)nc2s1 [Example 67] |
| < 10 | CCNC(=O)c1cc2c(C(=NOCCN(CC)CC)c3ccc(OC)c(OC)c3)nc(N)nc2s1 [Example 62] |
| > 10 | CN(C)CCNC(=O)c1cc2c(C(=NOCCN3CCCC3)c3ccc4c(c3)OCO4)nc(N)nc2s1 [Example 63] |
| > 10 | CCNC(=O)c1cc2c(C(=NOCCN3CCCC3)c3ccc(-n4cccn4)cc3)nc(N)nc2s1 [Example 69] |
| < 10 | CCNC(=O)c1cc2c(C(=NO)c3cccs3)nc(N)nc2s1 [Example 50] |
| < 10 | CC(C)(C)NC(=O)c1cc2c(C(=NOCCN3CCCC3)c3ccc4c(c3)OCO4)nc(N)nc2s1 (mixture of isomers) [Example 54] |
| > 10 | CCNC(=O)c1cc2c(C(=NOCCN(CC)CC)c3ccc(-n4cccc4)cc3)nc(N)nc2s1 [Example 70] |
| < 10 | CCNC(=O)c1cc2c(C(=NO)c3ccc(-n4cccc4)cc3)nc(N)nc2s1 [Example 80] |
| < 10 | COCCNC(=O)c1cc2c(C(=NOCCN3CCCC3=O)c3ccc4c(c3)OCO4)nc(N)nc2s1 (mixture of isomers) [Example 57] |
| > 10 | CCNC(=O)c1cc2c(C(=NOCCN3CCCC3)c3ccc(-n4cccc4)cc3)nc(N)nc2s1 [Example 68] |
| < 10 | CCN(CC)CCON=C(c1ccc2c(c1)OCO2)c1nc(N)nc2sc(C(=O)NCCOC)cc12 [Example 52] |
| < 10 | Nc1nc(C(=NOCCN2CCCC2)c2ccc3c(c2)OCO3)c2cc(C(=O)NCC(F)(F)F)sc2n1 [Example 75] |
| < 10 | CCNC(=O)c1cc2c(C(=NO)c3ccc(-n4cccn4)cc3)nc(N)nc2s1 [Example 81] |
| > 10 | CN(C)CCNC(=O)c1cc2c(C(=NOCCN3CCCC3=O)c3ccc4c(c3)OCO4)nc(N)nc2s1 [Example 64] |
| > 10 | CCN(CC)CCON=C(c1ccc2c(c1)OCO2)c1nc(N)nc2sc(C(=O)NCCN(C)C)cc12 [Example 65] |

Second part, the compound before the results:

| SMILES | IC50 [µM] |
| --- | --- |
| CCNC(=O)c1cc2c(C(=NO)c3ccco3)nc(N)nc2s1 [Example 17] | < 10 |
| CCNC(=O)c1cc2c(C(=NOCCN(CC)CC)c3ccc(OC)cc3)nc(N)nc2s1 [Example 33] | < 10 |
| CCNC(=O)c1cc2c(C(=NOCCN(CC)CC)c3ccc4c(c3)OCO4)nc(N)nc2s1 [Example 26, 2-Amino-4-(benzo[1,3]dioxol-5-yl-(2-diethylamino-ethoxyimino)-methyl]-thieno[2,3-d]pyrimidine-6-carboxylic acid ethylamide] | < 10 |
| CCNC(=O)c1cc2c(C(=NO)c3ccccc3Cl)nc(N)nc2s1 [Example 11] | > 10 |
| CCNC(=O)c1cc2c(C(=NO)c3ccc4ccccc4c3)nc(N)nc2s1 [Example 14] | < 10 |
| CN(C)CCCNC(=O)c1cc2c(C(=NO)c3ccc4c(c3)OCO4)nc(N)nc2s1 [Example 23] | < 10 |
| CCNC(=O)c1cc2c(C(=NOCCN(CC)CC)c3cccc(OC)c3)nc(N)nc2s1 [Example 31] | < 10 |
| CC(C)NC(=O)c1cc2c(C(=NOCCN3CCCC3=O)c3ccc4c(c3)OCO4)nc(N)nc2s1 (mixture of isomers) [Example 46] | < 10 |
| CCNC(=O)c1cc2c(C(=NO)c3ccc(Cl)cc3)nc(N)nc2s1 [Example 10] | < 10 |
| Nc1nc(C(=NO)c2ccc3c(c2)OCO3)c2cc(C(=O)NCC(F)(F)F)sc2n1 [Example 25] | < 10 |
| CCNC(=O)c1cc2c(C(=NOCC(=O)O)c3ccc4c(c3)OCO4)nc(N)nc2s1 [Example 34] | < 10 |
| CCNC(=O)c1cc2c(C(=NOCCN(CC)CC)c3cccs3)nc(N)nc2s1 [Example 38] | > 10 |
| CCNC(=O)c1cc2c(C(=NOCCN(CC)CC)c3ccc4c(c3)OCCO4)nc(N)nc2s1 [Example 32] | < 10 |
| COCCNC(=O)c1cc2c(C(=NO)c3ccc4c(c3)OCO4)nc(N)nc2s1 [Example 22] | < 10 |
| CCNC(=O)c1cc2c(C(=NO)c3ccc4c(c3)CCO4)nc(N)nc2s1 [Example 16] | < 10 |
| CCNC(=O)c1cc2c(C(=NOCCN(CC)CC)c3ccncc3)nc(N)nc2s1 [Example 42] | > 10 |
| CCNC(=O)c1cc2c(C(=NO)c3cccc(OC)c3)nc(N)nc2s1 [Example 9] | < 10 |
| CCNC(=O)c1cc2c(C(=NOCCN(CC)CC)c3cc4c(cc3Cl)OCO4)nc(N)nc2s1 (mixture of isomers) [Example 30] | < 10 |
| CCNC(=O)c1cc2c(C(=NO)c3ccoc3)nc(N)nc2s1 [Example 19] | < 10 |
| CCNC(=O)c1cc2c(C(=NOCCN(CC)CC)c3ccco3)nc(N)nc2s1 [Example 41] | < 10 |
| CCNC(=O)c1cc2c(C(=NOCCN3CCCC3=O)c3cccs3)nc(N)nc2s1 [Example 40] | < 10 |
| CCNC(=O)c1cc2c(C(=NO)c3cccnc3)nc(N)nc2s1 [Example 7] | > 10 |
| CCNC(=O)c1cc2c(C(=NOCCN3CCCC3=O)c3ccco3)nc(N)nc2s1 [Example 47] | < 10 |
| CCNC(=O)c1cc2c(C(=NO)c3cc4c(cc3Cl)OCO4)nc(N)nc2s1 [Example 6] | < 10 |
| CCNC(=O)c1cc2c(C(=NO)c3cccc(Cl)c3)nc(N)nc2s1 [Example 13] | < 10 |
| CN(C)CCNC(=O)c1cc2c(C(=NO)c3ccc4c(c3)OCO4)nc(N)nc2s1 [Example 24] | < 10 |
| CC(C)NC(=O)c1cc2c(C(=NOCCN3CCCC3)c3ccc4c(c3)OCO4)nc(N)nc2s1 [Example 45] | < 10 |
| CCOC(=O)c1cc2c(C(=NOC)c3ccc4c(c3)OCO4)nc(N)nc2s1 [Example 4, 2-Amino-4-(benzo[1,3]dioxol-5-yl-methoxyimino-methyl)-thieno[2,3-d]pyrimidine-6-carboxylic acid ethyl ester] | < 10 |
| CCNC(=O)c1cc2c(C(=NOC)c3ccc4c(c3)OCCN4C)nc(N)nc2s1 (mixture of isomers) [Example 1, 2-Amino-4-[methoxyimino-(4-methyl-3,4-dihydro-2H-benzo[1,4]oxazin-7-yl)-methyl]-thieno[2,3-d]pyrimidine-6-carboxylic acid ethylamide] | < 10 |
| CCNC(=O)c1cc2c(C(=NO)c3ccc4c(c3)OCO4)nc(N)nc2s1 [Example 3, 2-Amino-4-(benzo[1,3]dioxol-5-yl-hydroxyimino-methyl)-thieno[2,3-d]pyrimidine-6-carboxylic acid ethylamide] | < 10 |
